Data from patent publication US20090179638A1, “ASSAY FOR IDENTIFYING INHIBITORS OF NEURONAL APOPTOTIC PATHWAYS” (AEGERA THERAPEUTICS INC., priority 2006, published 2009).

Tests used:
HSP90 [1] = assay: ATP-Sepharose interaction assay; format: binding; details: purified HSP90 pre-incubated with substance
Procedure: Bound HSP90 was eluted HSP90 content was determined by immunoblotting.
ATP-Sepharose Interaction Assays. These were performed essentially as described in (Grenert et al., 1997). […] 25 ul of ATP-sepharose beads were added and the reactions were incubated for 30 min at 30° C. After thorough washing with ice-cold incubation buffer, bound proteins were eluted in sample buffer and HSP90 content was determined by immunoblotting.

HSP70 promoter [2] = assay: HSP70 promoter reporter transcriptional assay in MEFs (luciferase); format: cell-based, mouse
Procedure: (§1) FIGS. 5B and 5C are photographs of Western blots showing that compound 1 binds HSP90 and causes HSF1-dependent expression of HSP70 and HSP25. A: Wild-type or HSF1 null MEFs were transfected with pGL3B-HSP70, an HSP70 promoter reporter construct, or parental vector (pGL3B), then treated with 40 μM of compound 1 for 24 hours and analyzed for luciferase content as described in Materials and Methods (*=P<0.005 relative to 0 compound 1; **=P<0.005 relative to wild-type MEFs treated with 40 uM compound 1. B: Wild-type or HSF1 null MEFs were treated with increasing concentrations of compound 1 for 24 hours, cells were lysed, normalized for protein content, and analyzed for levels of HSP70, HSP40, and HSP25 as indicated. C: Compound 6-conjugated Sepharose beads were incubated with purified HSP90 for 2 hours, washed, and levels of bound HSP90 were analyzed by immunoblot. Con=Control beads, Alone=Compound 6-beads alone, Comp=[…]+competing compound 1 (at 80 μM). Experiments in Panel A-C were performed three times with identical results.
(§2) Induction of cell stress results in the interaction of HSP90 with misfolded proteins and disrupts its association with HSF1, allowing it to bind and activate HSP70 and HSP25 promoters (Sanchez-Perez and Perona, 1999). […]

HSP70 promoter [3] = assay: HSP70 transcriptional reporter constructs in PC12 cells; format: cell-based; details: transfected PC12 cells
PC12 cells = assay: PC12 cell death induced by chemotherapeutic drugs (LDH assay); format: cell-based
Procedure: FIG. 3 is a graph showing that compound 1 inhibits JNK-dependent cell death induced by chemotherapeutic drugs. Cells were infected with AdNRG at 5 MOI or treated with paclitaxel, cisplatin, or doxorubicin (Dox) at the indicated μM concentrations. At the time of treatment, compound 1 or vehicle was added to the cultures, as indicated. After 40 hours, cells were assayed for death using the LDH assay. Results are normalized relative to those obtained with 1% Triton (Tx), and represent the mean±standard deviation of a representative experiment performed in triplicate (*=P<0.01 relative to 0 μM compound 1 for each insult). Experiments were performed twice with identical results.
The ability of compound 1 to inhibit apoptosis in response to a variety of other insults, including the DNA damaging agent, cisplatin, the microtubule disruptor, paclitaxel, and doxorubicin, a topoisomerase inhibitor was investigated. […] Cisplatin-induced apoptosis has been reported to be JNK-dependent when used at low concentrations (10 μM), but JNK-independent at concentrations >25 μM (Sanchez-Perez and Perona, 1999) and consistent with this, compound 1 protected cells exposed to 10 μM, but not 50 μM, cisplatin (FIG. 3).
Cell culture, infection, transfection and immunoblotting. Sympathetic neurons were maintained and deprived of NGF as previously described (Bamji et al., 1998; Ma et al., 1992). PC12^rtTA cells were maintained and infected as previously described (Majdan et al., 1997; Salehi et al., 2002); for NRAGE, […] doxycycline was added to all plates at time of infection. Wildtype and HSF1 nullizygous immortalized mouse embryonic fibroblasts (MEFs) were maintained in DMEM containing 10% fetal calf serum, 1 μM β-mercaptoethanol, 1% non-essential amino acids, 1% L-glutamine, 1% antimycotic solution and 1% sodium pyruvate (all from GibcoBRL). Sympathetic neuron survival was assessed using the MTS assay according to the manufacturer's instructions (Promega). Analysis of PC12 cell death was determined using a lactate dehydrogenase (LDH) assay (Roche) as per the manufacturer's instructions. Transfections using plasmids or RNAi were performed using Lipofectamine 2000. Immunoblotting was performed as previously described (Majdan et al., 1997; Salehi et al., 2002).

HSP90 [4] = assay: Compound 6-bead pulldown of purified HSP90; format: binding; details: competing compound at 80 μM
Procedure: as §1
Compound 6 was coupled with Affi-Gel 10 beads (BioRad) and used as an affinity reagent in pulldown experiments. Beads were incubated either with whole cell lysates or with purified HSP90, washed extensively, and bound proteins were then eluted and analyzed by SDS-PAGE and immunoblotting. […]

Akt = Akt levels in PC12 cells (immunoblot); format: cell-based; details: 16 hours
HSP70 = HSP70 levels in SCG neurons (immunoblot); format: cell-based; details: 18 hours
Procedure: To address this, SCG neurons were treated with compound 1 for 18 hours then lysed and assessed for HSP70 levels by immunoblot. Uninfected PC12rtTA cells were treated in a similar manner. […] To test if the accumulation of HSP70 induced by compound 1 reflected increased steady state levels of its mRNA, RNA was isolated from PC12 cells treated with increasing concentrations of compound 1 for 18 hours and the cell lysates subjected to semi-quantitative rtPCR. […] HSP protein levels were also assessed in PC12rtTA cells infected with AdLacZ, Adp75, or AdNRG, and at the same time, exposed to compound 1.

HSP70 and HSP25 = assay: Endogenous HSP protein expression in wild-type or HSF1 null MEFs (immunoblot); format: cell-based, mouse
Procedure: as §1, §2

`NS(=O)(=O)c1nn2cc(-c3ccccc3)nc2s1` [Compound 1] was tested, and the “binding of HSP90 to gATP-Sepharose” value (HSP90 [1]) was “does not decrease the amount of HSP90 bound to gATP-Sepharose but rather increased their association”, the “transcriptional activity of the HSP70 promoter reporter construct” value (HSP70 promoter [2]; MEFs lacking HSF1, 40 μM) was “remained at baseline” and the “transcriptional activity of the HSP70 promoter reporter construct” value (HSP70 promoter [2]; wild-type MEFs, 40 μM) was “strongly induced”. For the same compound, the “activity of HSP70 transcriptional reporter constructs” value (HSP70 promoter [3]) was “stimulated”, the “protection against cisplatin-induced cell death” value (PC12 cells; cisplatin 10 μM) was “protected” and the “protection against cisplatin-induced cell death” value (PC12 cells; cisplatin 50 μM) was “not 50 μM”. The “protection against doxorubicin-induced cell death” value (PC12 cells; doxorubicin) was “did not offer any protection”, the “apoptosis induced by paclitaxel” value (PC12 cells; paclitaxel 10 μM and 50 μM) was “effectively reduced” and the “effect of excess unbound compound on compound 6-bead:HSP90 interaction” value (HSP90 [4]) was “strongly attenuated”. The “phosphorylated Akt (pAkt) levels” value (Akt) was “significantly enhanced”, the “total Akt levels” value (Akt) was “reduced total Akt only slightly” and the “cellular HSP70 levels” value (HSP70) was “large increase”. The “expression of endogenous HSP70 and HSP25” value (HSP70 and HSP25; MEFs lacking HSF1, 24 hours) was “not in MEFs lacking HSF1” and the “expression of endogenous HSP70 and HSP25” value (HSP70 and HSP25; wild type MEFs, 24 hours) was “strong induction”.
